The results in this text go back to US10993437B2, “Anti-microbial polymer incorporating a quaternary ammonium group” (priority 2013, dated 2021).

Assay type in all cases: cell-based
In assay [1] the test system is Pseudomonas aeruginosa. The assay is described as follows: Antibiotic disk susceptibility test, rings of inhibition. To be noted: for P. aeruginosa, diameter of ring of inhibition: Mueller-Hinton plate, 18-24 hrs at 37° C., 100 μg of compound per disc, control discs 10 or 30 μg. The procedure:
(§1) Compounds were tested for antibacterial activity, as described in Ma et al. (2011), against pure cultures of Escherichia coli, Pseudomonas aeruginosa, Bacillus cereus, Proteus mirabilis/hauseri, and Staphylococcus aureus, supplied by Ward's Natural Science Ltd. (St. Catherines, Ontario, Canada). All cultures were maintained on Tryptic Soy agar. These cultures were then transferred using an inoculation loop to 10 mL of Tryptic soy broth, and grown at 37° C. for 24 hours. Triplicates of plate and broth cultures were made in case of error or contamination. Using a sterile swab, and aseptic techniques, the bacterial broth inocula were transferred to Mueller-Hinton plates and spread evenly, ensuring that the entire surface was inoculated. They were then left to dry for 3-5 minutes. The following control discs were used: Penicillin (10 μg), Tetracycline (30 μg), Chloramphenicol (30 μg), and Ampicillin (10 μg). Four antibiotic discs containing different compounds were placed equidistant from each other on a Mueller-Hinton plate. […] If clear rings of inhibition were present, the diameter was measured twice using a caliper. […] The paper towels were then allowed to dry. After, 5 cm from each edge of the paper towels was cut out (to prevent edge areas where spraying might have been irregular being tested), and from the remaining paper towels, a single hole punch machine was used to punch 6 mm paper discs from each of the paper towels.

Assay [2] concerns Bacillus cereus. The assay is described as above. To be noted: for B. cereus, diameter of ring of inhibition, antimicrobial paper towels: 6 mm paper discs punched from paper towels, antibiotic control discs 10 or 30 ug; for B. cereus, diameter of ring of inhibition: Mueller-Hinton plate, 18-24 hrs at 37° C., 100 μg of compound per disc, control discs 10 or 30 μg. The method, then:
as §1

Assay [3] deals with Staphylococcus aureus. Described as above. The settings on record: for S. aureus, diameter of ring of inhibition, antimicrobial paper towels: 6 mm paper discs punched from paper towels, antibiotic control discs 10 or 30 ug; for S. aureus, diameter of ring of inhibition: Mueller-Hinton plate, 18-24 hrs at 37° C., 100 μg of compound per disc, control discs 10 or 30 μg. The procedure: as §1

Assay [4] deals with Proteus mirabilis/hauseri. The description is as above. To be noted: for P. hauseri, diameter of ring of inhibition, antimicrobial paper towels: 6 mm paper discs punched from paper towels, antibiotic control discs 10 or 30 ug; for P. hauseri, diameter of ring of inhibition: Mueller-Hinton plate, 18-24 hrs at 37° C., 100 μg of compound per disc, control discs 10 or 30 μg. The procedure:
as §1

For assay [5], the system named is Escherichia coli. The assay is described as above. To be noted: for E. coli, diameter of ring of inhibition, antimicrobial paper towels: 6 mm paper discs punched from paper towels, antibiotic control discs 10 or 30 ug; for E. coli, diameter of ring of inhibition: Mueller-Hinton plate, 18-24 hrs at 37° C., 100 μg of compound per disc, control discs 10 or 30 μg. The procedure:
as §1

Assay [6] relates to Aspergillus niger. Description: Antifungal disk susceptibility test, rings of inhibition. The settings on record: for A. niger, diameter of ring of inhibition: Sabouraud plate, 48 hrs at room temperature, 100 μg of compound per disc, Amphotericin B 100 ug or 20 μg. The procedure: (§2) Adapted from Messer et al., (2007), this protocol was used to test novel compounds for antifungal properties against yeasts and fungi. Compounds were tested for antifungal activity against pure cultures of Saccharomyces cerevisiae, Candida albicans supplied by Ward's Natural Science Ltd. and Aspergillus niger and Aspergillus fumigatus supplied by […]. (Inverness Medical, Ottawa, Ontario, Canada). All cultures were maintained on Sabouraud agar. […] The cultures of A. niger and A. fumigatus were transferred, using an inoculation loop, to new Sabouraud agar and grown for 48 hrs. at 27° C., and 35° C. respectively, to cause sporulation. Triplicates of all the plates and broth cultures were made in case of error or contamination. Using a sterile swab, and aseptic techniques, the cell suspension of S. cerevisiae, and C. albicans were transferred to Sabouraud agar plates and spread evenly, ensuring that the entire surface was inoculated. They were then left to dry for 10 minutes. […] The 0.2% Tween 80 reduces the hydrophobicity of the conidia, allowing the spores to be readily suspended (Messer et al., 2007). Alternatively two small circles containing fungal growth of the A Niger or A Fumigatus fungi were cut from the agar plates, and using a glass/PTFE tissue homoginzer, were mixed and homogenized with 5 ml of sterile MilliQ water to create a suspension of fungal spores. Using a sterile swab, and aseptic techniques, the spore inocula of A. niger and A. fumigatus were transferred to Sabouraud agar plates and spread evenly, ensuring that the entire surface was inoculated. They were then left to dry for 10 minutes. Amphotericin B (100 μg) in acetone was used as a control. Four antibiotic discs containing different compounds were place equidistant apart on each Sabouraud plate. […] If clear rings of inhibition were present, the diameter was measured twice using a caliper. Halos indicated partial inhibition of growth (Hicks et al., 2008). […] The paper towels were then allowed to dry. After, 5 cm from each edge of the paper towels was cut out (to prevent edge areas where spraying might have been irregular being tested), and from the remaining paper towels, a single hole punch machine was used to punch 6 mm paper discs from each of the paper towels.

Assay [7] concerns Aspergillus fumigatus. The assay is described as above. The settings on record: for A. fumigatus, diameter of ring of inhibition: Sabouraud plate, 18-24 hrs at 35° C., 100 μg of compound per disc, Amphotericin B 100 ug or 20 μg. The procedure: as §2
Assay [8] concerns Candida albicans. The assay is described as above. The settings on record: for C. albicans, diameter of ring of inhibition: Sabouraud plate, 18-24 hrs at 37° C., 100 μg of compound per disc, Amphotericin B 50 ug or 20 μg. The procedure:
as §2, with “Amphotericin B (100 μg) in acetone was used as a control.” left out

The subject of assay [9] is Saccharomyces cerevisiae. The assay is described as above. The settings on record: for S. cerevisiae, diameter of ring of inhibition: Sabouraud plate, 18-24 hrs at 37° C., 100 μg of compound per disc, Amphotericin B 50 ug or 20 μg. The procedure:
as §2, with “Amphotericin B (100 μg) in acetone was used as a control.” left out

[10] abbreviates: 6 mm paper discs punched from paper towels, PAA-BZ-H 100 μg of solution onto paper discs, Amphotericin B 20 ug.

Take `CN(C)[C@@H]1C(O)=C(C(N)=O)C(=O)[C@@]2(O)C(O)=C3C(=O)c4c(O)cccc4[C@@](C)(O)[C@H]3C[C@@H]12` [Compound 10, Tetracycline]: in assay [1] (6 mm paper discs punched from paper towels, antibiotic control discs 10 or 30 ug), the “P. aeruginosa, diameter of ring of inhibition, antimicrobial paper towels” value is recorded as 10.75. In addition, the “P. aeruginosa, diameter of ring of inhibition” value in assay [1] is 10.75. For the same compound, in assay [2], the “B. cereus, diameter of ring of inhibition, antimicrobial paper towels” value is listed as 20.3 and the “B. cereus, diameter of ring of inhibition” value is 20.30. Also, in assay [3], the “S. aureus, diameter of ring of inhibition, antimicrobial paper towels” value is recorded as 23.3 and the “S. aureus, diameter of ring of inhibition” value is on record as 23.30. Moreover, in assay [4], the “P. hauseri, diameter of ring of inhibition, antimicrobial paper towels” value was 29.5 and the “P. hauseri, diameter of ring of inhibition” value came out at 29.50. In assay [5], the “E. coli, diameter of ring of inhibition, antimicrobial paper towels” value stood at 20.45 and the “E. coli, diameter of ring of inhibition” value stood at 20.45.
For the compound `O=C(N[C@H](CO)[C@H](O)c1ccc([N+](=O)[O-])cc1)C(Cl)Cl` [Compound 11, Chloramphenicol], in [2], the “B. cereus, diameter of ring of inhibition, antimicrobial paper towels” value came to 26.3 and the “B. cereus, diameter of ring of inhibition” value is listed as 26.30. In [3], the “S. aureus, diameter of ring of inhibition, antimicrobial paper towels” value was determined as 17.7 and the “S. aureus, diameter of ring of inhibition” value is 17.70. In [4], the “P. hauseri, diameter of ring of inhibition, antimicrobial paper towels” value is 16.5 and the “P. hauseri, diameter of ring of inhibition” value is 16.50. Also, in assay [5], the “E. coli, diameter of ring of inhibition, antimicrobial paper towels” value amounted to 32.25 and the “E. coli, diameter of ring of inhibition” value was determined as 32.25.
As for `CC1(C)S[C@@H]2[C@H](NC(=O)[C@H](N)c3ccccc3)C(=O)N2[C@H]1C(=O)O` [Compound 12, Ampicillin], in assay [2], the “B. cereus, diameter of ring of inhibition, antimicrobial paper towels” value amounted to 13.5 and the “B. cereus, diameter of ring of inhibition” value amounted to 13.50. For the same compound, in [3], the “S. aureus, diameter of ring of inhibition, antimicrobial paper towels” value was determined as 28.8 and the “S. aureus, diameter of ring of inhibition” value is reported as 28.80. In addition, in [4], the “P. hauseri, diameter of ring of inhibition, antimicrobial paper towels” value turned out to be 19 and the “P. hauseri, diameter of ring of inhibition” value is given as 19.00. Moreover, in assay [5], the “E. coli, diameter of ring of inhibition, antimicrobial paper towels” value is listed as 17.13 and the “E. coli, diameter of ring of inhibition” value came out at 17.13.
Take `C[C@@H]1[C@H](O)[C@@H](C)/C=C/C=C/C=C/C=C/C=C/C=C/C=C/[C@H](O[C@@H]2O[C@H](C)[C@@H](O)[C@H](N)[C@@H]2O)C[C@@H]2O[C@](O)(C[C@@H](O)C[C@@H](O)[C@H](O)CC[C@@H](O)C[C@@H](O)CC(=O)O[C@H]1C)C[C@H](O)[C@H]2C(=O)O` [Compound 13, Amphotericin B]: the “A. niger, diameter of ring of inhibition” value in assay [6] worked out at 17.86. The “A. fumigatus, diameter of ring of inhibition” value in [7] stood at 11.19. For the same compound, the “C. albicans, diameter of ring of inhibition” value in assay [8] came out at 9.35. Also, the “S. cerevisiae, diameter of ring of inhibition” value in assay [9] is on record as 8.39.
Consider `C[C@@H]1[C@H](O)[C@@H](C)/C=C/C=C/C=C/C=C/C=C/C=C/C=C/[C@H](O[C@@H]2O[C@H](C)[C@@H](O)[C@H](N)[C@@H]2O)C[C@@H]2O[C@](O)(C[C@@H](O)C[C@@H](O)[C@H](O)CC[C@@H](O)C[C@@H](O)CC(=O)O[C@H]1C)C[C@H](O)[C@H]2C(=O)O` [Compound 14, Amphotericin B], for which, in [6] (setting [10]), the “A. niger, diameter of ring of inhibition, antimicrobial paper towels” value was 8.7. Moreover, the “A. niger, diameter of ring of inhibition” value in assay [6] stood at 8.80. Besides, the “A. fumigatus, diameter of ring of inhibition, antimicrobial paper towels” value in [7] (setting [10]) turned out to be 9.4. Further, the “A. fumigatus, diameter of ring of inhibition” value in assay [7] amounted to 7.80. In addition, the “C. albicans, diameter of ring of inhibition, antimicrobial paper towels” value in [8] (setting [10]) is 9.7. For the same compound, the “C. albicans, diameter of ring of inhibition” value in assay [8] is recorded as 11.00. The “S. cerevisiae, diameter of ring of inhibition, antimicrobial paper towels” value in assay [9] (setting [10]) stood at 13.4. Further, in assay [9], the “S. cerevisiae, diameter of ring of inhibition” value worked out at 10.80.
Take `CCCCCCCCCCCCCC[N+](C)(C)Cc1ccccc1.[Cl-]` [Compound 15, Benzyldimethyltetradecylammonium chloride]: the “A. niger, diameter of ring of inhibition” value in assay [6] is 10.97. Further, in assay [7], the “A. fumigatus, diameter of ring of inhibition” value turned out to be 8.13. The “C. albicans, diameter of ring of inhibition” value in assay [8] amounted to 7.48. Moreover, the “S. cerevisiae, diameter of ring of inhibition” value in assay [9] was 11.33. Also, in [1], the “P. aeruginosa, diameter of ring of inhibition” value is 8.13. Moreover, the “B. cereus, diameter of ring of inhibition” value in assay [2] was 14.30. In addition, in [3], the “S. aureus, diameter of ring of inhibition” value worked out at 13.43. Moreover, in assay [4], the “P. hauseri, diameter of ring of inhibition” value worked out at 12.63. Further, the “E. coli, diameter of ring of inhibition” value in assay [5] is listed as 12.70.
In the case of Penicillin [Compound 9], in assay [3], the “S. aureus, diameter of ring of inhibition, antimicrobial paper towels” value is recorded as 31.5 and the “S. aureus, diameter of ring of inhibition” value came to 31.50. Also, in assay [4], the “P. hauseri, diameter of ring of inhibition, antimicrobial paper towels” value stood at 11 and the “P. hauseri, diameter of ring of inhibition” value is given as 11.00. Besides, in assay [5], the “E. coli, diameter of ring of inhibition, antimicrobial paper towels” value is reported as 15.91 and the “E. coli, diameter of ring of inhibition” value is listed as 15.91.
